Test results as given in US20250019368A1, “COMPOUND AND PRODUCTION METHOD THEREOF, POLYMERIZABLE COMPOSITION, RESIN COMPOSITION, POLYMER, CURED SUBSTANCE, AND LAMINATE” (FUJIFILM Corporation, priority 2022, published 2025).

Assays:
Format in all cases: physicochemical
[1] = Solubility in ethyl acetate, visual check for undissolved residue; settings: 20.0 mg in 2 mL ethyl acetate, stirred at 40° C. for 10 minutes; no residue means solubility 1% by mass or more
Protocol: The solubility of each compound of Examples 1 to 3 and Comparative Examples 1 to 3 in an organic solvent was measured according to the following procedure.
20.0 mg of the compound was weighed and placed in a container, 2 mL of ethyl acetate was added thereto, and the mixture was stirred at 40° C. for 10 minutes. After the stirring, the presence or absence of undissolved residue of the compound was visually observed. The fact that no undissolved residue of the compound was observed means that the solubility of the compound was 1% by mass or more.

[2] = Solubility in the organic solvents of the polymerizable composition; settings: solvent (1) propylene glycol monomethyl ether acetate and solvent (2) cyclohexanone, polymerizable composition P4
Source text: A polymerizable composition P4 was obtained in the same manner as in the preparation of the polymerizable composition P1, except that, in the preparation of the polymerizable composition P1, the “exemplary compound 1-13” was changed to the “comparative compound R-3”.
A cured film E4 was obtained in the same manner as in the production of the cured film E1, except that, in the production of the cured film E1, the “polymerizable composition P1” was changed to the “polymerizable composition P4”. However, since the “comparative compound R-3” had extremely low solubility in the organic solvent [that is, the solvent (1) and the solvent (2)], the obtained photocured film D4 and cured film E4 were not films that could be evaluated for the spectral characteristics, so that the following evaluation tests were not performed.

[3] = Absorption spectrum of the compound in chloroform solution (spectral characteristics); settings: 5×10^−6 mol/L, 1 cm cell; for ε (molar absorption coefficient): at λmax
Protocol: An absorption spectrum of each of the compounds of Examples 1 to 3 and Comparative Examples 1 to 3 was measured according to the following procedure, and the maximal absorption wavelength ([…]), the molar absorption coefficient ([…]), and the width of the absorption spectrum at an absorbance corresponding to ½ of the maximum absorbance (that is, the half-width) were obtained.
Using chloroform as a solvent, a solution in which the compound was dissolved was prepared such that the concentration of the compound in the chloroform was 5×10^−6 mol/L (liter; the same applies hereinafter). Each prepared solution was put into a 1 cm cell, and an absorption spectrum was measured using a spectrophotometer [product name: U-4100, manufactured by Hitachi, Ltd.] as a measurement device.

Row | Solubility in ethyl acetate (presence or absence of undissolved residue) [1] | Solubility in the organic solvent [2] | Half-width (width of absorption spectrum at ½ of maximum absorbance) [3] [nm] | λmax (maximal absorption wavelength) [3] [nm] | ε (molar absorption coefficient) [3] | Structure (SMILES)
1 | not completely dissolved | extremely low | 27 | 676 | 356,000 L/(mol · cm) | CCN(CC)c1ccc(C2=C([O-])/C(=C3\C=CC(=[N+](CC)CC)C=C3NC(C)=O)C2=O)c(NC(C)=O)c1 [R-3]
2 | not completely dissolved |  | 27 | 667 | 363,000 L/(mol · cm) | C=C(C)C(=O)OCCN(CCOC(=O)C(=C)C)c1ccc(C2=C([O-])/C(=C3\C=CC(=[N+](CCOC(=O)C(=C)C)CCOC(=O)C(=C)C)C=C3NC(C)=O)C2=O)c(NC(C)=O)c1 [R-2]
3 | not completely dissolved |  | 23 | 564 | 238,000 L/(mol · cm) | CCC1=C(C)/C(=C2\C(=O)C(c3[nH]c(C)c(CC)c3C)=C2O)N=C1C [R-1]

The remaining lines, values behind:

Row | Structure (SMILES) | Solubility in ethyl acetate (presence or absence of undissolved residue) [1] | Solubility in the organic solvent [2] | Half-width (width of absorption spectrum at ½ of maximum absorbance) [3] [nm] | λmax (maximal absorption wavelength) [3] [nm] | ε (molar absorption coefficient) [3]
4 | C=C(C)C(=O)OCCOC(=O)C1=C(C)/C(=C2\C(=O)C(c3[nH]c(C)c(CC)c3C)=C2O)N=C1C [Exemplary compound 1-13] | completely dissolved |  | 25 | 556 | 185,000 L/(mol · cm)
5 | C=Cc1ccc(Cn2c(C)c(CC)c(C)c2C2=C([O-])/C(=C3/C(C)=C(CC)C(C)=[N+]3Cc3ccc(C=C)cc3)C2=O)cc1 [Exemplary compound 1-30] | completely dissolved |  | 29 | 591 | 158,000 L/(mol · cm)
